Structures can show the parent of a compound that is named as a salt.

One test deals with HIF prolyl hydroxylase. Briefly: Inhibition of the activity of HIF prolyl hydroxylase (VBC complex binding to hydroxylated peptide substrate). In kind it is biochemical. The note with it: cell lysate containing prolyl hydroxylase, biotin-DLDLEMLAPYIPMDDDFQL peptide substrate. How it is done: Hydroxylated HIF bonds specifically to the von Hippel-Lindau protein-elongin B-elongin C complex (VBC complex). This interaction occurs only if HIF is hydroxylated on a conserved prolyl radical. It is the basis for the biochemical determination of HIF prolyl hydroxylase activity. The test is carried out as described [Oehme F., Jonghaus W., Narouz-Ott L., Huetter J., Flamme I., Anal. Biochem. 330 (1), 74-80 (2004)]:
A clear 96-well microtiter plate coated with NeutrAvidin HBC (Pierce) is incubated with blocker casein for 30 minutes. The plate is then washed three times with 200 μl each time of wash buffer (50 mM Tris, pH 7.5, 100 mM NaCl, 10% (v/v) blocker casein, 0.05% (v/v) Tween 20) per well. The peptide biotin-DLDLEMLAPYIPMDDDFQL (Eurogentec, 4102 Seraing, Belgium) is added in a concentration of 400 nM in 100 μl wash buffer. This peptide serves as a substrate for the prolyl hydroxylation and is bonded to the microtiter plate. After incubation for 30 minutes, the plate is washed three times with wash buffer, incubated with 1 mM biotin in blocker casein for 30 minutes and then washed again three times with wash buffer.
To carry out the prolyl hydroxylase reaction, the peptide substrate bonded to the plate is incubated with a cell lysate containing prolyl hydroxylase for 1 to 60 minutes. The reaction takes place in 100 μl reaction buffer (20 mM Tris, pH 7.5, 5 mM KCl, 1.5 mM MgCl2, 1 μM-1 mM 2-oxoglutarate, 10 μM FeSO4, 2 mM ascorbate) at room temperature. The reaction mixture moreover contains various concentrations of the prolyl hydroxylase inhibitor to be tested. The test substance is preferably, but not exclusively, employed at concentrations of between 1 nM and 100 μM. The reaction is stopped by washing the plate three times with wash buffer.
For quantitative determination of the prolyl hydroxylation, a fusion protein which contains both thioredoxin from E. coli and the VBC complex is added in 80 μl bonding buffer (50 mM Tris, pH 7.5, 120 mM NaCl). After 15 minutes, 10 μl of a solution of polyclonal anti-thioredoxin antibodies from rabbit in bonding buffer are added. After a further 30 minutes, 10 μl of a solution of anti-rabbit immunoglobulin coupled to horseradish peroxidase in bonding buffer are added. After incubation at room temperature for 30 minutes, the plate is washed three times with wash buffer in order to remove non-bonded VBC complex and antibodies. To determine the amount of bonded VBC complex, the plate is incubated with TMB for 15 minutes. The color reaction is ended by addition of 100 μl 1 M sulfuric acid. The amount of bonded VBC complex is determined by measurement of the optical density at 450 nm. It is proportional to the amount of hydroxylated proline in the peptide substrate.
Alternatively, a VBC complex coupled to europium (Perkin Elmer) can be used for detection of the prolyl hydroxylation. In this case, the amount of bonded VBC complex is determined by the fluorescence with respect to time. The use of VBC complex labeled with [^35S]-methionine is moreover possible. For this, the radioactively labeled VBC complex can be prepared by in vitro transcription-translation in reticulocyte lysate.

Test [1] has as its system recombinant A549 cell line with HRE-controlled luciferase reporter. Briefly: Cellular, functional in vitro test: luciferase reporter under hypoxia-responsible elements in recombinant A549 cell line. In kind it is cell-based. The note with it: Homo sapiens, luciferase light signal six to 24 hours after addition of test substance. The source says:
The activity of the compounds according to the invention is quantified with the aid of a recombinant cell line. The cell is originally derived from a human lung carcinoma cell line (A549, ATCC: American Type Culture Collection, Manassas, Va. 20108, USA). The test cell line is transfected in a stable manner with a vector which contains the reporter gene of Photinus pyralis luciferase (called luciferase in the following) under the control of an artificial minimal promoter. The minimal promoter comprises two hypoxia-responsible elements upstream of a TATA box [Oehme F., Ellinghaus P., Kolkhof P., Smith T. J., Ramakrishnan S., Hütter J., Schramm M., Flamme I., Biochem. Biophys. Res. Commun. 296 (2), 343-9 (2002)]. Under the effect of hypoxia (e.g. culturing in the presence of 1% oxygen for 24 hours) or under the action of non-selective dioxygenase inhibitors (e.g. desferroxamine in a concentration of 100 μM, cobalt chloride in a concentration of 100 μM or N-oxalylglycine diethyl ester in a concentration of 1 mM), the test cell line produces luciferase, which can be detected and quantified with the aid of suitable bioluminescence reagents (e.g. Steady-Glo® Luciferase Assay System, Promega Corporation, Madison, Wis. 53711, USA) and a suitable luminometer.
Test Procedure: On the day before the test, the cells are plated out in an exactly calculated amount of culture medium (DMEM, 10% FCS, 2 mM glutamine) in 384- or 1,536-well microtiter plates and kept in a cell incubator (96% atmospheric humidity, 5% v/v CO2, 37° C.). On the test day, the test substances are added to the culture medium in graduated concentrations. No test substance is added to the cells in batches serving as negative controls. As a positive control for determination of the sensitivity of the cell to inhibitors, desferroxamine e.g. is added in a final concentration of 100 μM. Six to 24 hours after transfer of the test substances into the wells of the microtiter plate, the resulting light signal is measured in the luminometer. A dose/effect relationship is plotted with the aid of the measurement values, which serves as the basis for determining the half-maximum active concentration (call the EC50 value in the following).
On the technique in general: A reporter such as luciferase makes a cellular process visible.

For `O=c1c(-c2cccnc2)c[nH]n1-c1ccccn1` [Example 6, 2-Pyridin-2-yl-4-pyridin-3-yl-1,2-dihydro-3H-pyrazol-3-one], at HIF prolyl hydroxylase, the 50% inhibitory concentration (IC50) (as a rule, the concentration needed to halve the response being measured) was 430 nM. In addition, the concentration for a half-maximal effect (EC50) (usually the midpoint of the concentration-response curve) in test [1] worked out at 4.9 µM.

At HIF prolyl hydroxylase, `O=c1c(-c2cccnc2)c[nH]n1-c1ccc(CO)cn1` [Example 23, 2-(5-Hydroxymethyl-pyridin-2-yl)-4-pyridin-3-yl-1,2-dihydro-3H-pyrazol-3-one hydrochloride] displayed an IC50 of 860 nM. Besides, the EC50 in test [1] was 13.4 µM.

As to `Cc1ncccc1-c1c[nH]n(-c2ccccn2)c1=O` [Example 26], on HIF prolyl hydroxylase, the IC50 amounted to 760 nM. Further, in test [1], the EC50 turned out to be 6 µM.

With `Cc1ccnc(-n2[nH]cc(-c3ccc(C#N)nc3)c2=O)c1` [Example 34, 4-(6-Cyanopyridin-3-yl)-2-(4-methylpyridin-2-yl)-1,2-dihydro-3H-pyrazol-3-one hydrochloride], the IC50 on HIF prolyl hydroxylase amounted to 180 nM. Moreover, the EC50 in test [1] was found to be 4.7 µM.

`NCc1ccnc(-n2[nH]cc(-c3cccnc3)c2=O)c1` [Example 35, 2-[4-(Aminomethyl)pyridin-2-yl]-4-pyridin-3-yl-1,2-dihydro-3H-pyrazol-3-one dihydrochloride] had an IC50 at HIF prolyl hydroxylase of 2300 nM. Also, the EC50 in test [1] worked out at 17.2 µM.

On to `O=c1c(-c2cccnc2)c[nH]n1-c1cc(CO)ccn1` [Example 43, 2-[4-(Hydroxymethyl)pyridin-2-yl]-4-pyridin-3-yl-1,2-dihydro-3H-pyrazol-3-one hydrochloride], for which the IC50 at HIF prolyl hydroxylase was found to be 1500 nM. Further, in test [1], the EC50 came out at 7.6 µM.

As to `O=C(Cc1ccccc1)NCc1ccnc(-n2[nH]cc(-c3cccnc3)c2=O)c1` [Example 46, N-{[2-(5-Oxo-4-pyridin-3-yl-2,5-dihydro-1H-pyrazol-1-yl)pyridin-4-yl]methyl}-2-phenylacetamide hydrochloride], the IC50 on HIF prolyl hydroxylase was 700 nM. The EC50 in test [1] was found to be 7.4 µM.

Compound `CC(=O)NCc1ccnc(-n2[nH]cc(-c3cccnc3)c2=O)c1` [Example 47, N-{[2-(5-Oxo-4-pyridin-3-yl-2,5-dihydro-1H-pyrazol-1-yl)pyridin-4-yl]methyl}acetamide hydrochloride] registered an IC50 at HIF prolyl hydroxylase of 2200 nM. Further, in test [1], the EC50 worked out at 12.4 µM.

With `O=C(NCc1ccnc(-n2[nH]cc(-c3cccnc3)c2=O)c1)c1ccccc1` [Example 48, N-{[2-(5-Oxo-4-pyridin-3-yl-2,5-dihydro-1H-pyrazol-1-yl)pyridin-4-yl]methyl}benzamide hydrochloride], the IC50 at HIF prolyl hydroxylase came to 1900 nM. Further, the EC50 in test [1] was determined as 18.9 µM.

`O=C(CCn1cc(Cl)cn1)NCc1ccnc(-n2[nH]cc(-c3cccnc3)c2=O)c1` [Example 50, 3-(4-Chloro-1H-pyrazol-1-yl)-N-{[2-(5-oxo-4-pyridin-3-yl-2,5-dihydro-1H-pyrazol-1-yl)pyridin-4-yl]methyl}propanamide] returned an IC50 at HIF prolyl hydroxylase of 1900 nM. Also, the EC50 in test [1] was determined as 7.1 µM.

The values above are taken from patent US9085572B2, “4-(pyridin-3-yl)-2(pyridin-2yl)-1,2-dihydro-3H-pyrazol-3-one derivatives as specific HIF-pyrolyl-4-hydroxylase inhibitors for treating cardiovascular and haematological diseases” (Bayer Intellectual Property GmbH, priority 2005, dated 2015).
